The record followed here is ChEMBL document CHEMBL1201862, “PubChem BioAssay data set” (2004).

Among the test systems are RPMI-8226; A549; SF-295; OVCAR-4; NCI-H23; U-251; Malme-3M; HCT-116; M14; OVCAR-8; NCI-H460; MOLT-4; SR; UACC-62; SF-268; SW-620; HCT-15; NCI-H226; SK-MEL-28; SK-OV-3.
What all share (test): growth of human tumour cells (NCI), 48 h

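Dose response: 5 concentrations. Exposure: 48 h. Format: 96-well plates. Endpoint: linear interpolation; highest concentration if not reached. At the GI50, growth is halved.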 The source made the active and inactive calls. Rule as the data show it: active = GI50 up to about 1.1 µM and inactive = higher.

Regarding `CC(=O)/N=C1/N(/C=C2\C(=O)Oc3ccccc3C2=O)C(=O)/C(=C/c2ccc(NC(C)=O)cc2)N1C`, the GI50 with RPMI-8226, in the assay with A549, in the assay with SF-295, with OVCAR-4, in the assay with NCI-H23 and in the assay on U-251 was > 100 µM (inactive) each time. The GI50 in the assay with Malme-3M, in the assay with HCT-116, with M14, in the assay on OVCAR-8, in the assay with NCI-H460 and with MOLT-4 was > 100 µM (inactive) each time. Further, the GI50 in the assay on SR was > 100 µM (inactive); with UACC-62, > 100 µM (inactive); with SF-268, > 100 µM (inactive); with SW-620, > 100 µM (inactive); in the assay with HCT-15, over 100 µM; in the assay with NCI-H226 it was > 100 µM (inactive). Besides, the GI50 in the assay with SK-MEL-28 and in the assay on SK-OV-3 was > 100 µM (inactive) throughout.
Consider `O=C(Nc1cccc2ccccc12)Nn1cnnc1`, for which the GI50 with RPMI-8226, in the assay on A549, in the assay on SF-295, with OVCAR-4, in the assay on NCI-H23 and with U-251 was > 100 µM (inactive) in each case. For the same molecule, the GI50 with Malme-3M is > 100 µM (inactive); in the assay with HCT-116 it was > 100 µM (inactive); with M14, > 100 µM (inactive); in the assay on OVCAR-8 it was 19.1 µM (inactive); in the assay on NCI-H460 it was > 100 µM (inactive); in the assay with MOLT-4 it was > 100 µM (inactive). Further, the GI50 was > 100 µM (inactive) in the assay on SR; > 100 µM (inactive) in the assay with UACC-62; > 100 µM (inactive) in the assay with SF-268; > 100 µM (inactive) with SW-620; over 100 µM in the assay with HCT-15; > 100 µM (inactive) in the assay with NCI-H226. The GI50 in the assay with SK-MEL-28 and with SK-OV-3 was > 100 µM (inactive) throughout.
Turning to `Cc1nc2[nH]ncn2c(=O)c1CCO`, the GI50 with RPMI-8226, in the assay on A549, in the assay with OVCAR-4, in the assay with NCI-H23, with U-251 and in the assay with Malme-3M was > 10 µM (inactive) throughout. Besides, the GI50 with HCT-116, with M14, in the assay on OVCAR-8, in the assay with NCI-H460, in the assay on MOLT-4 and in the assay with SR was > 10 µM (inactive) throughout. Also, the GI50 in the assay on UACC-62 was > 10 µM (inactive); in the assay on SF-268, > 10 µM (inactive); with SW-620, > 10 µM (inactive); in the assay on HCT-15 it was over 10 µM; with NCI-H226, > 10 µM (inactive); in the assay on SK-MEL-28, 2.56 µM (inactive). Moreover, the GI50 with SK-OV-3 was > 10 µM (inactive).
With `CCCCN1CSC(=S)N(Cc2ccccc2)C1`, the GI50 in the assay with RPMI-8226 was 24.9 µM (inactive); in the assay on A549 it was 48 µM (inactive); with SF-295, 48.1 µM (inactive); with OVCAR-4, 56.8 µM (inactive); in the assay on NCI-H23, 42.6 µM (inactive); with U-251, 44.6 µM (inactive). In addition, the GI50 was 36.8 µM (inactive) in the assay on Malme-3M; 35.4 µM (inactive) in the assay with HCT-116; > 82.8 µM (inactive) in the assay with M14; 66.4 µM (inactive) in the assay with OVCAR-8; 31.9 µM (inactive) in the assay on NCI-H460; 25.6 µM (inactive) in the assay with MOLT-4. The GI50 is 31.7 µM (inactive) in the assay with SR; 41.2 µM (inactive) in the assay with UACC-62; 49.7 µM (inactive) in the assay with SF-268; 37.8 µM (inactive) with SW-620; 58.2 µM with HCT-15; > 68.5 µM (inactive) with NCI-H226. The GI50 with SK-MEL-28 and in the assay on SK-OV-3 was > 100 µM (inactive) throughout.
As for `CN(NC(=O)c1cccs1)C1=NCCCN1`, the GI50 with RPMI-8226, with A549, in the assay with SF-295, in the assay on OVCAR-4, in the assay on NCI-H23 and with U-251 was > 100 µM (inactive) each time. The GI50 with Malme-3M, with HCT-116, in the assay with M14, in the assay with OVCAR-8, with NCI-H460 and with MOLT-4 was > 100 µM (inactive) in each case. Further, the GI50 is > 100 µM (inactive) with SR; > 100 µM (inactive) in the assay on UACC-62; > 100 µM (inactive) in the assay with SF-268; > 100 µM (inactive) with SW-620; over 100 µM with HCT-15; > 100 µM (inactive) in the assay on NCI-H226. The GI50 in the assay with SK-MEL-28 and with SK-OV-3 was > 100 µM (inactive) throughout.
As to `Nc1nnc(CCC(=O)Nc2cc(Cl)ccc2Cl)n1N`, the GI50 in the assay on RPMI-8226, in the assay with A549, in the assay on SF-295, in the assay on OVCAR-4, with NCI-H23 and in the assay on U-251 was > 100 µM (inactive) each time. Also, the GI50 in the assay on Malme-3M, in the assay with HCT-116, in the assay on M14, with OVCAR-8, in the assay with NCI-H460 and in the assay on MOLT-4 was > 100 µM (inactive) in each case. The GI50 is > 100 µM (inactive) with SR; > 100 µM (inactive) in the assay on UACC-62; > 100 µM (inactive) in the assay with SF-268; > 100 µM (inactive) in the assay on SW-620; over 100 µM in the assay with HCT-15; > 100 µM (inactive) in the assay with NCI-H226. For the same molecule, the GI50 in the assay with SK-MEL-28 and in the assay with SK-OV-3 was > 100 µM (inactive) throughout.
With `C=C1c2nc3ccccc3n2C=C(c2ccccc2)N1c1ccc([N+](=O)[O-])cc1`, the GI50 with RPMI-8226 is 8.81 µM (inactive); in the assay with A549, 2.31 µM (inactive); in the assay with SF-295, 3.37 µM (inactive); in the assay on OVCAR-4, 0.324 µM (active); with NCI-H23, 9.38 µM (inactive); in the assay with U-251, 5.33 µM (inactive). Further, the GI50 in the assay on Malme-3M was 3.01 µM (inactive); in the assay on HCT-116, 2.52 µM (inactive); in the assay with M14, 8.57 µM (inactive); with OVCAR-8, 4.49 µM (inactive); with NCI-H460 it was 1.72 µM (inactive); in the assay on MOLT-4, 29.2 µM (inactive). Further, the GI50 with SR was 4.95 µM (inactive); in the assay on UACC-62, 7.26 µM (inactive); with SF-268, 8.11 µM (inactive); with SW-620, 14.4 µM (inactive); in the assay on HCT-15, 5.75 µM; in the assay with NCI-H226 it was 5.5 µM (inactive). The GI50 with SK-MEL-28 is 24.6 µM (inactive); in the assay on SK-OV-3, 1.79 µM (inactive).
For the molecule `N=C(NNS(=O)(=O)c1ccccc1)Oc1ccc(Cl)cc1`, the GI50 was 70.1 µM (inactive) in the assay on RPMI-8226; > 100 µM (inactive) with A549; > 100 µM (inactive) with SF-295; > 100 µM (inactive) with OVCAR-4; > 100 µM (inactive) in the assay with NCI-H23; 60.3 µM (inactive) in the assay with U-251. In addition, the GI50 is > 100 µM (inactive) in the assay on Malme-3M; 65.8 µM (inactive) in the assay on HCT-116; > 100 µM (inactive) in the assay on M14; > 100 µM (inactive) in the assay on OVCAR-8; > 100 µM (inactive) in the assay with NCI-H460; 68.5 µM (inactive) with MOLT-4. The GI50 in the assay on SR was 43.1 µM (inactive); with UACC-62, 59.8 µM (inactive); with SF-268, > 100 µM (inactive); in the assay with SW-620, 5.75 µM (inactive); in the assay with HCT-15, 33.1 µM; with NCI-H226, > 100 µM (inactive). Besides, the GI50 in the assay with SK-MEL-28 and in the assay with SK-OV-3 was > 100 µM (inactive) throughout.
Take `CCc1c(-c2ccccc2)[nH]c2ccccc2c1=O`: the GI50 in the assay on RPMI-8226 was 23.4 µM (inactive); in the assay with A549, 13.4 µM (inactive); in the assay on OVCAR-4, 33.2 µM (inactive); with NCI-H23, 55.3 µM (inactive); in the assay on U-251 it was > 100 µM (inactive); in the assay on Malme-3M it was 72.4 µM (inactive). Besides, the GI50 in the assay on HCT-116 is 41.3 µM (inactive); in the assay with M14, 35.6 µM (inactive); in the assay on NCI-H460, 5.16 µM (inactive); with MOLT-4, 95.7 µM (inactive); in the assay on SR it was 49.1 µM (inactive); in the assay on UACC-62, 28.8 µM (inactive). Moreover, the GI50 was 80.7 µM (inactive) in the assay on SF-268; 28.2 µM in the assay on HCT-15; 27.7 µM (inactive) in the assay on NCI-H226; 67.9 µM (inactive) in the assay with SK-MEL-28; 28.1 µM (inactive) in the assay on SK-OV-3.
